From US20230183237A1, “COMPETITIVE AND NONCOMPETITIVE INHIBITORS OF THE MUSCARINIC ACETYLCHOLINE RECEPTOR M5” (Vanderbilt University, priority 2020, published 2023)
Where two headings read alike, the source gives them in different places.

Target: T1, hM5 (Homo sapiens, UniProt P08912)
T1 construct: expressed in transfected cells
T1 sequence (P08912 1-532): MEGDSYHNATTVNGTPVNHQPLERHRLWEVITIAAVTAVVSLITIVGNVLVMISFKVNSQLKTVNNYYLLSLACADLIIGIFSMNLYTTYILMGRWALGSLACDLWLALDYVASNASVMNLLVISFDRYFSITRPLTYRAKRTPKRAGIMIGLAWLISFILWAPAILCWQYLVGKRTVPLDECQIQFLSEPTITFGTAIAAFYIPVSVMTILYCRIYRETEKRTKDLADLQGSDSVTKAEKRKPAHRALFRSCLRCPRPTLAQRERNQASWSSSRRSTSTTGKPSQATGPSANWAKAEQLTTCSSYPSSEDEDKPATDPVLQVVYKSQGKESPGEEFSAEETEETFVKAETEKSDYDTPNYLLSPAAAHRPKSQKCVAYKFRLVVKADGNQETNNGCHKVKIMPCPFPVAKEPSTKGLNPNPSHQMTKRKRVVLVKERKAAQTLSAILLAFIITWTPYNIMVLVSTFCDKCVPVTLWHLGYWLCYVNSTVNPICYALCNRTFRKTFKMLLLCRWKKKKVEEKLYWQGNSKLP
Assay: Calcium mobilization concentration-response (IC50 vs EC80 acetylcholine), CHO hM5
Format: cell-based
Conditions: CELL LINE hM5, read-out: IC50
Outline: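 CHO cells stably expressing hM5, dye-loaded, in HBSS/20 mM HEPES/2.5 mM probenecid, pH 7.4. Compounds were pre-incubated 140 s before an EC80 acetylcholine challenge, with calcium flux read kinetically.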

[1] = calcium mobilization, EC80 acetylcholine addition

Compound | IC50 [1] | IC50 (vs EC80 acetylcholine)
Cc1cc2nccn2nc1C1CCN(S(=O)(=O)c2cnc(C)n2C)CC1 [Compound 252, 6-(1-((1,2-dimethyl-1H-imidazol-5-yl)sulfonyl)piperidin-4-yl)-7-methylimidazo[1,2-b]pyridazine] | 123 nM | 
O=S(=O)(c1cnc2n1CCC2)N1CC=C(c2cc3ncnn3cc2Cl)CC1 [Compound 206, 6-chloro-7-(1-((6,7-dihydro-5H-pyrrolo[1,2-a]imidazol-3-yl)sulfonyl)-1,2,3,6-tetrahydropyridin-4-yl)-[1,2,4]triazolo[1,5-a]pyridine] | > 10000 nM | 
Cc1cc2c(cc1S(=O)(=O)N1CCC(c3nn4ncnc4cc3C)CC1)OCO2 [Compound 183, 7-methyl-6-(1-((6-methylbenzo[d][1,3]dioxol-5-yl)sulfonyl)piperidin-4-yl)-[1,2,4]triazolo[1,5-b]pyridazine] | > 10000 nM | 
Cc1ncc(S(=O)(=O)N2CCC(c3cn4ccnc4cc3Cl)CC2)s1 [Compound 589, 5-((4-(7-chloroimidazo[1,2-a]pyridin-6-yl)piperidin-1-yl)sulfonyl)-2-methylthiazole] |  | 530 nM
Cc1c(C2=CCN(S(=O)(=O)c3ccc4c(c3)CCO4)CC2)cnc2ncnn12 [Compound 244, 6-(1-((2,3-dihydrobenzofuran-5-yl)sulfonyl)-1,2,3,6-tetrahydropyridin-4-yl)-7-methyl-[1,2,4]triazolo[1,5-a]pyrimidine] | > 10000 nM | 
Cc1c(C2CCN(S(=O)(=O)c3cnn(C)c3CC#N)CC2)cn2ncnc2c1F [Compound 439, 2-(4-((4-(8-fluoro-7-methyl-[1,2,4]triazolo[1,5-a]pyridin-6-yl)piperidin-1-yl)sulfonyl)-1-methyl-1H-pyrazol-5-yl)acetonitrile] |  | 162 nM
Cc1cc2nccn2nc1N1CCN(S(=O)(=O)c2cnn3c2OCCC3)CC1 [Compound 437, 3-((4-(7-methylimidazo[1,2-b]pyridazin-6-yl)piperazin-1-yl)sulfonyl)-6,7-dihydro-5H-pyrazolo[5,1-b][1,3]oxazine] |  | 59 nM
Cc1nc2cc(C)c(C3CCN(S(=O)(=O)c4cn(C)nc4C)CC3)cn2n1 [Compound 79, 6-(1-((1,3-dimethyl-1H-pyrazol-4-yl)sulfonyl)piperidin-4-yl)-2,7-dimethyl-[1,2,4]triazolo[1,5-a]pyridine] | > 10000 nM | 
CCc1cc2ncnn2cc1C1CCN(S(=O)(=O)c2nncn2C)CC1 [Compound 514, 7-ethyl-6-(1-((4-methyl-4H-1,2,4-triazol-3-yl)sulfonyl)piperidin-4-yl)-[1,2,4]triazolo[1,5-a]pyridine] |  | > 10000 nM
Cc1nn(C)cc1S(=O)(=O)N1CCC(c2cc3cc[nH]c3cn2)CC1 [Compound 95, 5-(1-((1,3-dimethyl-1H-pyrazol-4-yl)sulfonyl)piperidin-4-yl)-1H-pyrrolo[2,3-c]pyridine] | > 10000 nM | 
Cn1ncc(S(=O)(=O)N2CC=C(c3c4ccccc4nn3C)CC2)c1Cl [Compound 489, 3-(1-((5-chloro-1-methyl-1H-pyrazol-4-yl)sulfonyl)-1,2,3,6-tetrahydropyridin-4-yl)-2-methyl-2H-indazole] |  | 1290 nM

The remaining lines, values ahead:

IC50 [1] | IC50 (vs EC80 acetylcholine) | Compound
17 nM |  | Cc1cc2c(cc1C1CCN(S(=O)(=O)c3cnn(C)c3C)CC1)OCO2 [Compound 371, 1-((1,5-dimethyl-1H-pyrazol-4-yl)sulfonyl)-4-(6-methylbenzo[d][1,3]dioxol-5-yl)piperidine]
 | 17 nM | Cc1cc(S(=O)(=O)N2CCC(c3cn4ncnc4c(F)c3C)CC2)sn1 [Compound 485, 5-((4-(8-fluoro-7-methyl-[1,2,4]triazolo[1,5-a]pyridin-6-yl)piperidin-1-yl)sulfonyl)-3-methylisothiazole]
 | > 10000 nM | COC1(c2cn3ncnc3cc2C)CCN(S(=O)(=O)c2cnn(C)c2Cl)CC1 [Compound 415, 6-(1-((5-chloro-1-methyl-1H-pyrazol-4-yl)sulfonyl)-4-methoxypiperidin-4-yl)-7-methyl-[1,2,4]triazolo[1,5-a]pyridine]
36 nM |  | Cc1c(S(=O)(=O)N2CCC(c3cn4ncnc4cc3Cl)CC2)cnn1C [Compound 291, 7-chloro-6-(1-((1,5-dimethyl-1-pyrazol-4-yl)sulfonyl)piperidin-4-yl)-[1,2,4]triazolo[1,5-a]pyridine]
234 nM |  | Cc1ncc(S(=O)(=O)N2CCC(c3cn4ncnc4cc3C(F)(F)F)CC2)n1C [Compound 277, 6-(1-((1,2-dimethyl-1H-imidazol-5-yl)sulfonyl)piperidin-4-yl)-7-(trifluoromethyl)-[1,2,4]triazolo[1,5-a]pyridine]
> 10000 nM |  | Cc1cc2ncnn2nc1C1CCN(S(=O)(=O)c2cnc3n2CCC3)CC1 [Compound 208, 6-(1-((6,7-dihydro-5H-pyrrolo[1,2-a]imidazol-3-yl)sulfonyl)piperidin-4-yl)-7-methyl-[1,2,4]triazolo[1,5-b]pyridazine]
 | 636 nM | CCc1cc2ncnn2cc1C1CCN(S(=O)(=O)c2cnn(C)c2CC#N)CC1 [Compound 408, 2-(4-((4-(7-ethyl-[1,2,4]triazolo[1,5-a]pyridin-6-yl)piperidin-1-yl)sulfonyl)-1-methyl-1H-pyrazol-5-yl)acetonitrile]
 | 4140 nM | Cc1ncc(S(=O)(=O)N2CCC(c3cc(F)c4ncnn4c3)CC2)n1C [Compound 467, 6-(1-((1,2-dimethyl-1H-imidazol-5-yl)sulfonyl)piperidin-4-yl)-8-fluoro-[1,2,4]triazolo[1,5-a]pyridine]
 | 268 nM | CO[C@@H]1CN(S(=O)(=O)c2cnn(C)c2Cl)CC[C@H]1c1cn2ncnc2cc1C (racemic) [Compound 413, (rac)-6-(trans-1-((5-chloro-1-methyl-1H-pyrazol-4-yl)sulfonyl)-3-methoxypiperidin-4-yl)-7-methyl-[1,2,4]triazolo[1,5-a]pyridine]
 | 11 nM | Cn1ncc(S(=O)(=O)N2CCC(c3cn4ncnc4cc3Cl)CC2)c1C#N [Compound 405, 4-((4-(7-chloro-[1,2,4]triazolo[1,5-a]pyridin-6-yl)piperidin-1-yl)sulfonyl)-1-methyl-1H-pyrazole-5-carbonitrile]
5 nM |  | O=S(=O)(c1cnn2c1CCCC2)N1CC=C(c2cn3ncnc3cc2Cl)CC1 [Compound 242, 7-chloro-6-(1-((4,5,6,7-tetrahydropyrazolo[1,5-a]pyridin-3-yl)sulfonyl)-1,2,3,6-tetrahydropyridin-4-yl)-[1,2,4]triazolo[1,5-a]pyridine]
2700 nM |  | Cc1cc2ncnn2cc1C1=CCN(S(=O)(=O)c2cc3c(cc2F)OCC3)CC1 [Compound 46, 6-(1-((6-fluoro-2,3-dihydrobenzofuran-5-yl)sulfonyl)-1,2,3,6-tetrahydropyridin-4-yl)-7-methyl-[1,2,4]triazolo[1,5-a]pyridine]
 | 398 nM | Cc1cnccc1C1CCN(S(=O)(=O)c2cnn(C)c2Cl)CC1 [Compound 429, 4-(1-((5-chloro-1-methyl-1H-pyrazol-4-yl)sulfonyl)piperidin-4-yl)-3-methylpyridine]
594 nM |  | Cc1cc2ncnn2cc1[C@@H]1CCN(S(=O)(=O)c2cnn(C)c2C)C[C@H]1O (racemic) [Compound 197, (rac)-trans-1-((1,5-dimethyl-1H-pyrazol-4-yl)sulfonyl)-4-(7-methyl-[1,2,4]triazolo[1,5-a]pyridin-6-yl)piperidin-3-ol]
> 10000 nM |  | Cc1nc2cc(C)c(C3CCN(S(=O)(=O)c4ccc5ncsc5c4)CC3)cn2n1 [Compound 78, 6-((4-(2,7-dimethyl-[1,2,4]triazolo[1,5-a]pyridin-6-yl)piperidin-1-yl)sulfonyl)benzo[d]thiazole]
